Patent publication US8604195B2, “Substituted bicyclic piperidinyl- and piperazinyl-sulfonamides useful to inhibit 11β-hydroxysteroid dehydrogenase type-1” (Merck Sharp & Dohme Corp., priority 2007, dated 2013)

Tests used:
Human 11-β-HSD1 = Human 11-β-HSD1 (Homo sapiens, UniProt P28845); assay: 11β-HSD1 enzymatic activity, 3H-cortisone SPA, human enzyme; settings: Human 11-β-HSD1 IC50 (nM), membrane, 125 nM 3H-cortisone, 1 hr room temperature
Description: (§1) The reaction was incubated at room temperature for 1 hr before it was stopped by addition of 50 μM buffer containing 20 mM NaPO4 pH 7.5, 30 μM 18β-glycyrrhetinic acid, 1 μg/ml monoclonal anti-cortisol antibody (Biosource) and 2 mg/ml anti-mouse antibody coated scintillation proximity assay (SPA) beads (Amersham Bioscience). The mixture was incubated at room temperature for 2 hrs with vigorous shaking and analyzed on TopCount scintillation counter.

Mouse 11-β-HSD1 = Mouse 11-β-HSD1 (Mus musculus, UniProt P50172); assay: 11β-HSD1 enzymatic activity, 3H-cortisone SPA, mouse enzyme; settings: Mouse 11-β-HSD1 IC50 (nM), membrane, 125 nM 3H-cortisone, 1 hr room temperature
Sequence of Mouse 11-β-HSD1 (P50172 whole entry): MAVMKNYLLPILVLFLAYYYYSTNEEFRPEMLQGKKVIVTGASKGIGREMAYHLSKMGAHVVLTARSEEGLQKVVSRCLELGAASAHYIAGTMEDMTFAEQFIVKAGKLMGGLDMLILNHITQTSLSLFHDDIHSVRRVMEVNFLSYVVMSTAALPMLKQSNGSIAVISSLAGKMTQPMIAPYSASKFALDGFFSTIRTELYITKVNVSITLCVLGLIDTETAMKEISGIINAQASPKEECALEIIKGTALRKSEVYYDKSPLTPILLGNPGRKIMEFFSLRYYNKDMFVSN
Description: as §1

Sequence of Human 11-β-HSD1 (P28845 whole entry): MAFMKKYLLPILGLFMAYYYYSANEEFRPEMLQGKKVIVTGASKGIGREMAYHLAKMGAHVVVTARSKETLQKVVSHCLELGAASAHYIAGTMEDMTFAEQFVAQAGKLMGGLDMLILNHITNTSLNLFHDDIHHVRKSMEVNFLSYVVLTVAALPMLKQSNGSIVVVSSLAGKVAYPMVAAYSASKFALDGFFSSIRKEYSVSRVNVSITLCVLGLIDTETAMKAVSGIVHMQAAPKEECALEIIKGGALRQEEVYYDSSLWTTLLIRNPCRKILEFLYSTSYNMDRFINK

SMILES	IC50 (Human 11-β-HSD1)	IC50 (Mouse 11-β-HSD1)
CC(C)(C)c1ccc(S(=O)(=O)N2C3CCC2CC(Oc2ccc(C#N)cn2)C3)cc1 (single isomer, unassigned) [Compound 5]	> 10000 nM	23800 nM
CC(C)(C)c1ccc(S(=O)(=O)N2C3CCC2CC(Oc2ccc(C#N)cn2)C3)cc1 (single isomer, unassigned) [Compound 6]	413 nM	5590 nM
CC(C)(C)c1ccc(S(=O)(=O)N2C3CCC2CC(O)(Cc2ccccc2)C3)cc1 (stereo not drawn) [Compound 15]	740 nM	114 nM
CC(C)(C)c1ccc(S(=O)(=O)N2C3CCC2CC(O)(c2ccccc2)C3)cc1 (stereo not drawn) [Compound 16]	–	138 nM
CCC(C)(C)c1ccc(S(=O)(=O)N2C[C@@H]3C[C@H]2CN3C)cc1 [Compound 21]	333 nM	258 nM
